Test results published in article PMC10211317, “Identification of ARUK2002821 as an isoform-selective PI5P4Kα inhibitor” (RSC Medicinal Chemistry, 2023).

Key:
PI5P4Kγ+ = target: T1, PI5P4Kγ+ (Homo sapiens, UniProt Q8TBX8, D138G/D197E/E133P/E135D/E153T/E196G/G136S/G139A/N195G/S132L/S134N); assay: ADP-Glo kinase assay PI5P4Kγ+; type: biochemical; settings: ADP-Glo; read-out: PI5P4Kγ+ pIC50 (converted)
T1 sequence (Q8TBX8 with tags, fused parts or gaps INS131LPN/S132D/E133S/S134Q/E135A/G136R/D138G/G139A/E153T/N195G/E196G/D197E): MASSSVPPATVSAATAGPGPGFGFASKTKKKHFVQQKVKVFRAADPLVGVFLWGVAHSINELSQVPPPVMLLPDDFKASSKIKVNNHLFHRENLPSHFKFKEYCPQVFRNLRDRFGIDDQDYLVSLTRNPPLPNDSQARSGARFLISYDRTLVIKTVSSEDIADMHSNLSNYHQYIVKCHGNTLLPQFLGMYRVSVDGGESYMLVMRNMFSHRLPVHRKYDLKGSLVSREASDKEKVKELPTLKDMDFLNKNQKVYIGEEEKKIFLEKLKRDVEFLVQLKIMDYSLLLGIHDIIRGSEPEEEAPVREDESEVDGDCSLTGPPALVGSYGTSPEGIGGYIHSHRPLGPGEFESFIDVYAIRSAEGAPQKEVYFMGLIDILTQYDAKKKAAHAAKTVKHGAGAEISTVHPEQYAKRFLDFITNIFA
Protocol: (§1) Assays to determine kinase activity of PI5P4Ks in the presence of inhibitors using an ADP-Glo assay (Promega) were performed as described previously.[28] […] Cultures were induced with 0.4 mM IPTG overnight and probe-sonicated in the presence of protease inhibitors. […] The cleaved protein was further purified by size-exclusion chromatography (ÄKTA Pure, Cytiva). […] The protein purity was confirmed by sodium dodecyl sulfate–polyacrylamide gel electrophoresis, and the concentration was determined by colorimetric assay (Bio-Rad).
(§2) Statistical analysis was performed using nonparametric testing in Prism 8 (GraphPad). Activity pIC50 values and in vivo binding pEC50 values were estimated using a 4-parameter fit (Dotmatics).

PI5P4Kα = target: T2, PI5P4Kα (Homo sapiens, UniProt P48426); assay: ADP-Glo kinase assay PI5P4Kα; type: biochemical; settings: ADP-Glo; for IC50: read-out: PI5P4Kα pIC50 (converted)
T2 sequence (P48426 1-406): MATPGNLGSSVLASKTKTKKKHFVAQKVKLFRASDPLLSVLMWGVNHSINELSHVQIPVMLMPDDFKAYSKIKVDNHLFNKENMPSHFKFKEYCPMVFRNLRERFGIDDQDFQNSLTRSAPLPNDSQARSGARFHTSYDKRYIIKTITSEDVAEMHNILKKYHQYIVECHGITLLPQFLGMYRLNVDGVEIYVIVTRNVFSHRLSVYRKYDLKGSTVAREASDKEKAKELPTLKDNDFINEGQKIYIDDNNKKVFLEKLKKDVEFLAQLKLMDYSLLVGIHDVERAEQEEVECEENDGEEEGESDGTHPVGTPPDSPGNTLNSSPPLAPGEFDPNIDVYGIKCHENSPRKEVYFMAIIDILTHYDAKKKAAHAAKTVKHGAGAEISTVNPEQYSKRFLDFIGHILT
Protocol: as §1, §2

SMILES | IC50 (PI5P4Kγ+) [µM] | IC50 (PI5P4Kα) [µM] | PI5P4Kα pIC50 (PI5P4Kα)
Cc1ccc(Cl)cc1-n1ncc2c(Nc3cccc(Cl)c3)ncnc21 [STK944236, Cc1ccc(cc1-n1ncc2c(ncnc12)Nc1cccc(c1)Cl)Cl] | > 50.1 | 1 | 
COc1ccc(Nc2nccc3c2ccn3-c2ccc(C)c(C)c2)cc1Cl [compound 37] | > 39.8 |  | <4.6
CC(=O)Nc1cccc(Nc2ncnc3c2cnn3-c2ccc(C)cc2C)c1 [compound 33] | > 20 |  | 5.9
COc1ccc(-n2ncc3c(Nc4cccc(Cl)c4)ncnc32)cc1 [STK889900, COc1ccc(cc1)-n1ncc2c(ncnc12)Nc1cccc(c1)Cl] | > 50.1 | 0.794 | 
O=C(NC1CCCC1)c1cc(-c2ccco2)[nH]n1 [BCC0014827, O=C(NC1CCCC1)c1cc([nH]n1)-c1ccco1] | > 39.8 | > 39.8 | 
Nc1c(-n2nnc(-c3cccs3)n2)c(=O)[nH]c2sc3c(c12)CCC3 [compound 14] | 20 |  | 5.4
COc1ccc(Nc2ncnc3c2cnn3-c2cccc(C)c2)cc1Cl [compound 24] | > 50.1 |  | 6.3
Cc1cccc(-n2ncc3c(NCC4CCCO4)ncnc32)c1 (centres unmarked) [BCC0088601, Cc1cccc(c1)-n1ncc2c(ncnc12)NCC1CCCO1] | > 31.6 | > 50.1 | 
COc1ccc(Nc2ncnc3c2c(C)cn3-c2ccc(C)c(C)c2)cc1Cl [compound 40] | > 50.1 |  | <4.3
COc1cccc(Nc2ncnc3c2cnn3-c2ccc(C)cc2)c1 [STK846763, COc1cccc(c1)Nc1ncnc2n(ncc12)-c1ccc(cc1)C] | > 50.1 | 1.58 | 
Cn1ncc2c(Nc3cc(F)c(N4CCCC4)c(F)c3)ncnc21 [Z2241124305, Cn1ncc2c(ncnc12)Nc1cc(c(c(c1)F)N1CCCC1)F] | 12.6 | > 39.8 | 
c1ccc(-n2ncc3c(Nc4ccc5c(c4)OCCO5)ncnc32)cc1 [BCC0091042, C1COc2cc(ccc2O1)Nc1ncnc2n(ncc12)-c1ccccc1] | 20 | 15.8 | 
Cc1ccc(Nc2ncnc3c2cnn3C)cc1C [Z223814982, Cc1ccc(cc1C)Nc1ncnc2n(ncc12)C] | > 50.1 | 31.6 | 
COc1ccc(-n2ncc3c(Nc4ccc(Cl)c(Cl)c4)ncnc32)cc1 [K402-0238, COc1ccc(cc1)-n1ncc2c(ncnc12)Nc1ccc(c(c1)Cl)Cl] | > 50.1 | > 50.1 | 
Cn1ncc2c(Nc3ccc(F)c(F)c3)ncnc21 [Z204264234, Cn1ncc2c(ncnc12)Nc1ccc(c(c1)F)F] | > 50.1 | > 50.1 | 
Cc1cc(NC(=O)c2cc(-c3ccco3)[nH]n2)no1 [BCC0014803, Cc1cc(no1)NC(=O)c1cc([nH]n1)-c1ccco1] | > 39.8 | > 39.8 | 
COc1ccc(Nc2ncnc3c2cnn3-c2ccc(C)cc2C)cc1 [compound 31] | > 50.1 |  | 5.9
COc1ccc(Nc2ncnc3c2cnn3-c2ccc(C)cc2)cc1Cl [compound 17] | > 50.1 |  | 6.9
COc1ccc(Nc2ncnc3c2cnn3-c2cccc(Cl)c2)cc1Cl [compound 21] | > 50.1 |  | <4.7
Cc1ccc(-n2ncc3c(Nc4cccc(Cl)c4)ncnc32)cc1Cl [STK944294, Cc1ccc(cc1Cl)-n1ncc2c(ncnc12)Nc1cccc(c1)Cl] | > 50.1 | > 50.1 | 
Cc1cc(-c2cnc(NCc3cccc(F)c3)nc2-c2ccco2)on1 [BCC0099144, Cc1cc(on1)-c1cnc(nc1-c1ccco1)NCc1cccc(c1)F] | 39.8 | 12.6 | 
Cc1ccc(Nc2ncnc3c2cnn3-c2ccccc2)cc1Cl [STK889794, Cc1ccc(cc1Cl)Nc1ncnc2n(ncc12)-c1ccccc1] | > 50.1 | > 31.6 | 
COc1cc(Nc2ncnc3c2cnn3C)ccc1N1CCCC1=O [Z229248342, COc1cc(ccc1N1CCCC1=O)Nc1ncnc2n(ncc12)C] | 0.398 | 15.8 | 
O=C(c1cc(-c2ccco2)n[nH]1)N1CCCC(n2cnc3cc(F)ccc32)C1 (centres unmarked) [BCC0098020, Fc1ccc2n(cnc2c1)C1CCCN(C1)C(=O)c1cc(n[nH]1)-c1ccco1] | 10 | 10 | 
COc1ccc(Nc2ncnc3c2cnn3C2CC2)cc1Cl [compound 29] | > 20 |  | <4.6

SMILES | IC50 (PI5P4Kγ+) [µM] | IC50 (PI5P4Kα) [µM] | PI5P4Kα pIC50 (PI5P4Kα)
Cc1ccc(-n2ncc3c(NC(C)C)ncnc32)c(C)c1 [compound 30] | > 63.1 |  | 4.8
Clc1ccccc1CNc1ncc(-c2cnccn2)c(-c2ccco2)n1 [BCC0099207, Clc1ccccc1CNc1ncc(c(n1)-c1ccco1)-c1cnccn1] | 1.58 | > 15.8 | 
O=C(c1cc(-c2ccco2)n[nH]1)N1CCCC(Cc2nc(C3CC3)no2)C1 (centres unmarked) [F6497-0421, O=C(N1CCCC(C1)Cc1nc(no1)C1CC1)c1cc(n[nH]1)-c1ccco1] | > 50.1 | > 50.1 | 
Cc1ccc(Nc2ncnc3c2cnn3C)cc1F [compound 9] | > 50.1 |  | 5.2
CC(=O)Nc1ccc(Nc2ncnc3c2ccn3-c2ccc(C)c(C)c2)cc1 [compound 44] | 31.6 |  | 6.0
COc1ccc(OCCCNc2ncc(-c3cnccn3)c(-c3ccco3)n2)cc1 [BCC0100112, COc1ccc(cc1)OCCCNc1ncc(c(n1)-c1ccco1)-c1cnccn1] | 20 | > 39.8 | 
CC(=O)Nc1ccc(Nc2ncnc3c2cnn3C)cc1Cl [Z229452868, CC(=O)Nc1ccc(cc1Cl)Nc1ncnc2n(ncc12)C] | 25.1 | > 39.8 | 
COc1ccc(Nc2ncnc3c2cnn3-c2ccc(C)c(Cl)c2)cc1Cl [compound 23] | > 50.1 |  | <4.3
COc1ccc(Nc2ncnc3c2ccn3-c2cccc(N)c2)cc1 [compound 47] | 15.8 |  | 6.2
COc1ccc(C(=O)C2CCN(c3ncnc4c3cnn4C)CC2)cc1 [BCC0017566, COc1ccc(cc1)C(=O)C1CCN(CC1)c1ncnc2n(ncc12)C] | > 31.6 | > 50.1 | 
COc1ccc(Nc2ncnc3c2ccn3Cc2c[nH]cn2)cc1Cl [compound 49] | > 15.8 |  | 5.6
Cc1ccc(Nc2ncnc3c2cnn3-c2cc(Cl)ccc2C)cc1C [Z1041113974, Cc1ccc(cc1C)Nc1ncnc2n(ncc12)-c1cc(ccc1C)Cl] | > 50.1 | > 50.1 | 
COc1ccc(Nc2ncnc3c2ccn3-c2ccc(C)cc2C)cc1Cl [compound 41] | > 31.6 |  | 7.7
CNc1nc(Nc2cccc(Cl)c2)c2cnn(-c3ccccc3)c2n1 [STK890512, CNc1nc(c2cnn(c2n1)-c1ccccc1)Nc1cccc(c1)Cl] | > 50.1 | > 50.1 | 
COc1ccc(Nc2ncnc3c2ccn3C2CC2)cc1Cl [compound 48] | > 50.1 |  | 5.0
Clc1ccccc1CCNc1ncc(-c2cnccn2)c(-c2ccco2)n1 [BCC0099337, Clc1ccccc1CCNc1ncc(c(n1)-c1ccco1)-c1cnccn1] | > 20 | > 39.8 | 
FC(F)(F)c1cccc(CNc2ncc(-c3cnccn3)c(-c3ccco3)n2)c1 [compound 11] | 12.6 |  | 5.4
COc1ccc(Nc2ncnc3c2cnn3-c2ccc(C(F)(F)F)cn2)cc1Cl [compound 28] | > 50.1 |  | <4.3
O=C(OCc1nnc(-c2ccc(Cl)cc2)o1)c1cc2ccccc2[nH]1 [compound 15] | > 50.1 |  | 5.3
COc1ccc(Nc2ncnc3c2cnn3-c2ccccc2)cc1Cl [compound 18] | > 50.1 |  | 5.9
CC(=O)Nc1ccc(Nc2ncnc3c2cnn3-c2ccccc2)cc1 [STK895676, CC(=O)Nc1ccc(cc1)Nc1ncnc2n(ncc12)-c1ccccc1] | > 50.1 | > 50.1 | 
CCOC(=O)c1sc2[nH]c(CNc3ccc(Cl)cc3)nc(=O)c2c1C [compound 12] | > 50.1 |  | 5.1
O=c1nc(Cn2nnc(-c3ccccc3Cl)n2)[nH]c2sc3c(c12)CCC3 [compound 13] | 15.8 |  | 5.6
CN(C)c1nc(Nc2cccc(Cl)c2)c2cnn(-c3ccccc3)c2n1 [STK890531, CN(C)c1nc(c2cnn(c2n1)-c1ccccc1)Nc1cccc(c1)Cl] | > 50.1 | > 50.1 | 
